Earlier results on two molecules are cited in US10646464B2, “Methods for treating cancer” (Boston Biomedical, Inc., priority 2017, dated 2020).

A word on the IC50: it is the point on the concentration scale where inhibition reaches its midpoint.

For data set [1], the system named is patients with advanced, previously treated pancreatic adenocarcinoma. The note with it: weekly paclitaxel alone, previously reported.
Data set [2] deals with Stat3 pathway. The conditions noted are these: read-out: inhibits Stat3 pathway activity, cellular IC50.

As for `CC(=O)O[C@H]1C(=O)[C@@]2(C)[C@H]([C@H](OC(=O)c3ccccc3)[C@]3(O)C[C@H](OC(=O)[C@H](O)[C@@H](NC(=O)c4ccccc4)c4ccccc4)C(C)=C1C3(C)C)[C@]1(OC(C)=O)CO[C@@H]1C[C@@H]2O` [paclitaxel], in data set [1], the “median overall survival (mOS)” value is given as “about 17.5 weeks”.

For `CC(=O)c1cc2c(o1)C(=O)c1ccccc1C2=O` [2-acetylnaphtho[2,3-b]furan-4,9-dione], in data set [2], the IC50 is about 250 nM.
